Reference: patent US12528773B2, “Non-lysosomal glucosylceramidase inhibitors and uses thereof” (ALECTOS THERAPEUTICS INC., priority 2020, dated 2026)

Key:
Assay type in all cases: biochemical
GBA2 [1] = target: T1, GBA2 (Homo sapiens (Human), UniProt Q9HCG7); assay: Inhibition of GBA2 in cell lysate (4-methylumbelliferone glucopyranoside substrate); settings: HEK293T-overexpressing GBA2 cellular homogenate, pH 5.5; read-out: GBA2 IC50;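 also: homogenate of stably transfected HEK293T cells pre-treated with a GCase inhibitor, test compound preincubated 5 min at 37 °C, substrate reaction 20 min at 37 °C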
[2] = system: rat intestinal alpha-glucosidases; assay: Inhibition of rat intestinal alpha-glucosidases (rat intestinal lysate, glucose detection); settings: compound concentration 25 μM, sucrose as substrate
In short: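 Rat intestinal acetone-powder lysate in citrate-phosphate pH 6.0 with 50 or 25 μM compound, 3.3% DMSO, 37 °C, 20 min. Sucrose reactions used 2.1 mg/mL lysate and 40 mM sucrose; maltose reactions 0.69 mg/mL lysate and 10 mM maltose. Glucose was detected by Amplex Red fluorescence at 10 min, or by hexokinase absorbance at 340 nm, relative to no-compound wells.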

GBA2 [3] = target: T1, GBA2; assay: Binding specificity for GBA2 over other molecules, Ki or IC50 ratio
Description: In some embodiments, one or more of the compounds according to the invention may specifically bind a GBA2. In alternative embodiments, one or more of the compounds according to the invention may specifically bind the active site of a GBA2. […] In alternative embodiments, one or more of the compounds according to the invention may specifically bind the human non-lysosomal glucosylceramidase (GBA2) over the human lysosomal glucosylceramidase (GCase) and/or the human cytosolic glucosylceramidase (GBA3). In alternative embodiments, one or more of the compounds according to the invention may specifically bind the human non-lysosomal glucosylceramidase (GBA2) over the human glucosylceramide synthase (GCS). In alternative embodiments, one or more of the compounds according to the invention may specifically bind the human non-lysosomal glucosylceramidase (GBA2) over an intestinal alpha-glucosidase, where the intestinal alpha-glucosidase may be a sucrase-isomaltase or a maltase-glucoamylase.

T1 sequence (Q9HCG7 whole entry): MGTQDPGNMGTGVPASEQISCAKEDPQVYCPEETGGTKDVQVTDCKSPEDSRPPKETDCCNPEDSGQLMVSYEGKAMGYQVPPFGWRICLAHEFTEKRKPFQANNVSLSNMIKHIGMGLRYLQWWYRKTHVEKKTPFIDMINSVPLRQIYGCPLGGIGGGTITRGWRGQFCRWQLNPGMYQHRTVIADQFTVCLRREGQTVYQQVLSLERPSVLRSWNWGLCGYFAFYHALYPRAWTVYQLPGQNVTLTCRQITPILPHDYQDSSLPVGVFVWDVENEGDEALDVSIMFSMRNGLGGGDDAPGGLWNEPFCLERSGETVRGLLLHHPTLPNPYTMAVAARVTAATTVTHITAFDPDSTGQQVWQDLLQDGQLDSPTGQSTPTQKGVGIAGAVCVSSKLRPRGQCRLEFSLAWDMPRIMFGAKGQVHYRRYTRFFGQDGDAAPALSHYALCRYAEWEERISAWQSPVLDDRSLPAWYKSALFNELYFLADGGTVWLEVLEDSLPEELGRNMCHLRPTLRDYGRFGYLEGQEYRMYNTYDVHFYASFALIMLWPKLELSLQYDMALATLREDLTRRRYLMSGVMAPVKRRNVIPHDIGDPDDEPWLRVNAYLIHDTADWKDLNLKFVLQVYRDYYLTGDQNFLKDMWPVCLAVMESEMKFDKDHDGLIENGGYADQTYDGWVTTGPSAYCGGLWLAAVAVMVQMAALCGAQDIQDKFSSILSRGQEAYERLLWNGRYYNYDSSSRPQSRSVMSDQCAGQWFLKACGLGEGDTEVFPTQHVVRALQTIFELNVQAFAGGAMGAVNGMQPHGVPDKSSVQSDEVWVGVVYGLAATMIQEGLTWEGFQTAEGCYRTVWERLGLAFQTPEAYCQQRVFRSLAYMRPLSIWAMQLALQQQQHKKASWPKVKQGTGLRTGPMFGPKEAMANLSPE

Row | IC50 (GBA2 [1]) [nM] | binding specificity, IC50(other molecule)/IC50(GBA2) or Ki ratio (GBA2 [3]) | Compound | rat α-glu. (% inhib.) [2] [%]
1 | < 100 | enhanced binding specificity | O[C@H]1[C@H](O)CN(C[C@H]2CCCN(c3ncccc3C(F)(F)F)C2)C[C@@H]1O [Example 29, (3S,4R,5R)-1-(((R)-1-(3-(trifluoromethyl)pyridin-2-yl)piperidin-3-yl)methyl)piperidine-3,4,5-triol] | 4
2 | < 100 | enhanced binding specificity | O[C@H]1[C@H](O)CN(C[C@H]2CCCN(c3cccc(C(F)(F)F)n3)C2)C[C@@H]1O [Example 30, (3S,4R,5R)-1-(((R)-1-(6-(trifluoromethyl)pyridin-2-yl)piperidin-3-yl)methyl)piperidine-3,4,5-triol] | 6
3 | < 100 | enhanced binding specificity | O[C@H]1[C@H](O)CN(C[C@H]2CCCN(c3cccnc3C(F)(F)F)C2)C[C@@H]1O [Example 31, (3S,4R,5R)-1-(((R)-1-(2-(trifluoromethyl)pyridin-3-yl)piperidin-3-yl)methyl)piperidine-3,4,5-triol] | 0
4 | < 100 | enhanced binding specificity | O[C@H]1[C@H](O)CN(C[C@H]2CCCN(c3nc4ccccc4s3)C2)C[C@@H]1O [Example 34, (3S,4R,5R)-1-(((R)-1-(benzo[d]thiazol-2-yl)piperidin-3-yl)methyl)piperidine-3,4,5-triol] | 2
5 | < 100 | enhanced binding specificity | O[C@H]1[C@H](O)CN(C[C@H]2CCCN(c3cccc4scnc34)C2)C[C@@H]1O [Example 35, (3S,4R,5R)-1-(((R)-1-(benzo[d]thiazol-4-yl)piperidin-3-yl)methyl)piperidine-3,4,5-triol] | 7
6 | < 100 | enhanced binding specificity | O[C@H]1[C@H](O)CN(C[C@@H]2CCCN(c3ncccc3C(F)(F)F)C2)C[C@@H]1O [Example 36, (3S,4S,5R)-1-(((S)-1-(3-(trifluoromethyl)pyridin-2-yl)piperidin-3-yl)methyl)piperidine-3,4,5-triol] | 0
7 | < 100 | enhanced binding specificity | O[C@H]1[C@H](O)CN(C[C@@H]2CCCN(c3cnccc3C(F)(F)F)C2)C[C@@H]1O [Example 38, (3S,4S,5R)-1-(((S)-1-(4-(trifluoromethyl)pyridin-3-yl)piperidin-3-yl)methyl)piperidine-3,4,5-triol] | 0

The remaining lines, values behind:

Row | Compound | IC50 (GBA2 [1]) [nM] | binding specificity, IC50(other molecule)/IC50(GBA2) or Ki ratio (GBA2 [3]) | rat α-glu. (% inhib.) [2] [%]
8 | O[C@H]1[C@H](O)CN(CCc2c(F)cc(N3CCCCC3)cc2F)C[C@@H]1O [Example 11, (3S,4r,5R)-1-(2,6-difluoro-4-(piperidin-1-yl)phenethyl)piperidine-3,4,5-triol] | < 100 | enhanced binding specificity | 10
9 | O[C@H]1[C@H](O)CN(CCc2c(F)cc(N3CCOCC3)cc2F)C[C@@H]1O [Example 12, (3S,4r,5R)-1-(2,6-difluoro-4-morpholinophenethyl)piperidine-3,4,5-triol] | < 100 | enhanced binding specificity | 4
10 | O[C@H]1[C@H](O)CN(CCc2c(F)cc(C3CCOCC3)cc2F)C[C@@H]1O [Example 13, (3S,4r,5R)-1-(2,6-difluoro-4-(tetrahydro-2H-pyran-4-yl)phenethyl)piperidine-3,4,5-triol] | < 100 | enhanced binding specificity | 5
11 | Cc1noc(C)c1-c1cc(F)c(CCN2C[C@@H](O)[C@H](O)[C@@H](O)C2)c(F)c1 [Example 14, (3S,4r,5R)-1-(4-(3,5-dimethylisoxazol-4-yl)-2,6-difluorophenethyl)piperidine-3,4,5-triol] | < 100 | enhanced binding specificity | 2
12 | Cc1n[nH]c(C)c1-c1cc(F)c(CCN2C[C@@H](O)[C@H](O)[C@@H](O)C2)c(F)c1 [Example 15, (3S,4r,5R)-1-(4-(3,5-dimethyl-1H-pyrazol-4-yl)-2,6-difluorophenethyl)piperidine-3,4,5-triol] | < 100 | enhanced binding specificity | 8
13 | Cc1ccccc1N1CC[C@H](CN2C[C@@H](O)[C@H](O)[C@@H](O)C2)C1 [Example 18, (3S,4R,5R)-1-(((R)-1-(o-tolyl)pyrrolidin-3-yl)methyl)piperidine-3,4,5-triol] | < 100 | enhanced binding specificity | 0
14 | O[C@H]1[C@H](O)CN(C[C@H]2CCN(c3cnccc3C(F)(F)F)C2)C[C@@H]1O [Example 20, (3S,4R,5R)-1-(((R)-1-(4-(trifluoromethyl)pyridin-3-yl)pyrrolidin-3-yl)methyl)piperidine-3,4,5-triol] | < 100 | enhanced binding specificity | 4
15 | O[C@H]1[C@H](O)CN(C[C@H]2CCN(c3nc(C(F)(F)F)cs3)C2)C[C@@H]1O [Example 21, (3S,4R,5R)-1-(((R)-1-(4-(trifluoromethyl)thiazol-2-yl)pyrrolidin-3-yl)methyl)piperidine-3,4,5-triol] | < 100 | enhanced binding specificity | 6
